According to the supplement of paper PMC11562712:

Experiment: first-order primary biodegradation rate constant k (sorption-corrected, fDis-corrected) (d-1); higher = faster biodegradation
Protocol: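 Modified OECD 309 water-sediment test. River water plus sieved sediment (50 g wet solid/L) from European river segments (DE, CH, ES, EL) was spiked with a mixture of 129 compounds at 1 ug/L each and incubated in the dark at river temperature for 10 days. The water phase was analysed by UHPLC-Orbitrap-MS. The first-order primary biodegradation rate constant k (d-1) is k_observed, corrected for dissipation in sterile sorption controls and divided by the dissolved fraction fDis; it was fitted over 3 replicate incubations. Invalid fits (p > 0.05, n < 5, not available, concentration increase) are excluded.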

[1] = river segment: Germany (DE) H_Contam, incubation temperature 24 °C
[2] = river segment: Greece (EL) A_Contam, incubation temperature 19 °C
[3] = river segment: Greece (EL) G_Contam, incubation temperature 19 °C
[4] = river segment: Greece (EL) L_Contam, incubation temperature 19 °C
[5] = river segment: Spain (ES) L_Contam, incubation temperature 24 °C
[6] = river segment: Switzerland (CH) C_Contam, incubation temperature 17 °C
[7] = river segment: Switzerland (CH) R_Contam, incubation temperature 17 °C
[8] = river segment: Switzerland (CH) U_Contam, incubation temperature 17 °C
[9] = river segment: Germany (DE) T_Contam, incubation temperature 24 °C
[10] = river segment: Germany (DE) T_Pris, incubation temperature 24 °C
[11] = river segment: Spain (ES) B_Contam, incubation temperature 24 °C
[12] = river segment: Spain (ES) C_Contam, incubation temperature 24 °C
[13] = river segment: Spain (ES) F_Pris_Salt, incubation temperature 24 °C
[14] = river segment: Switzerland (CH) U_Pris, incubation temperature 17 °C
[15] = river segment: Greece (EL) G_Pris, incubation temperature 19 °C

CCCCC(CC)COCC(O)CO (stereo not drawn) [3-((2-Ethylhexyl)oxy)propane-1,2-diol]
first-order primary biodegradation rate constant k [1]: 1.43 | first-order primary biodegradation rate constant k [2]: 0.277 | first-order primary biodegradation rate constant k [3]: 1.93 | first-order primary biodegradation rate constant k [4]: 5.22 | first-order primary biodegradation rate constant k [5]: 0.469 | first-order primary biodegradation rate constant k [6]: 6.13 | first-order primary biodegradation rate constant k [7]: 0.288 | first-order primary biodegradation rate constant k [8]: 0.0899

O=[N+]([O-])c1ccc(Cc2ccncc2)cc1 [4-(4-Nitrobenzyl)pyridine]
first-order primary biodegradation rate constant k [1]: 0.499 | first-order primary biodegradation rate constant k [9]: 1.05 | first-order primary biodegradation rate constant k [10]: 0.446 | first-order primary biodegradation rate constant k [2]: 1.09 | first-order primary biodegradation rate constant k [3]: 1.68 | first-order primary biodegradation rate constant k [4]: 1.94 | first-order primary biodegradation rate constant k [11]: 0.863 | first-order primary biodegradation rate constant k [12]: 0.301 | first-order primary biodegradation rate constant k [13]: 0.146 | first-order primary biodegradation rate constant k [5]: 1.1 | first-order primary biodegradation rate constant k [6]: 0.314 | first-order primary biodegradation rate constant k [7]: 0.45 | first-order primary biodegradation rate constant k [8]: 1.95 | first-order primary biodegradation rate constant k [14]: 2.28

Cc1cc(O)cc(C)c1Cl [4-Chloro-3,5-dimethylphenol]
first-order primary biodegradation rate constant k [1]: 1.4 | first-order primary biodegradation rate constant k [9]: 2.27 | first-order primary biodegradation rate constant k [10]: 1.68 | first-order primary biodegradation rate constant k [2]: 2.03 | first-order primary biodegradation rate constant k [3]: 0.169 | first-order primary biodegradation rate constant k [15]: 3.52 | first-order primary biodegradation rate constant k [4]: 3.5 | first-order primary biodegradation rate constant k [12]: 2.41 | first-order primary biodegradation rate constant k [13]: 0.228 | first-order primary biodegradation rate constant k [5]: 4.19 | first-order primary biodegradation rate constant k [14]: 4.31

Cc1ccc2n[nH]nc2c1 [5-Methylbenzotriazole]
first-order primary biodegradation rate constant k [1]: 0.0462 | first-order primary biodegradation rate constant k [9]: 0.0831 | first-order primary biodegradation rate constant k [10]: 0.00627 | first-order primary biodegradation rate constant k [2]: 0.327 | first-order primary biodegradation rate constant k [15]: 0.771 | first-order primary biodegradation rate constant k [4]: 0.219 | first-order primary biodegradation rate constant k [11]: 0.0714 | first-order primary biodegradation rate constant k [12]: 0.102 | first-order primary biodegradation rate constant k [5]: 0.219 | first-order primary biodegradation rate constant k [6]: 0.0095 | first-order primary biodegradation rate constant k [7]: 0.134 | first-order primary biodegradation rate constant k [8]: 0.139 | first-order primary biodegradation rate constant k [14]: 0.282

Nc1nc(NC2CC2)c2ncn([C@H]3C=C[C@@H](CO)C3)c2n1 [Abacavir]
first-order primary biodegradation rate constant k [1]: 1.6 | first-order primary biodegradation rate constant k [9]: 1.17 | first-order primary biodegradation rate constant k [10]: 1.37 | first-order primary biodegradation rate constant k [2]: 2.15 | first-order primary biodegradation rate constant k [3]: 1.43 | first-order primary biodegradation rate constant k [15]: 2.35 | first-order primary biodegradation rate constant k [4]: 12 | first-order primary biodegradation rate constant k [12]: 0.639 | first-order primary biodegradation rate constant k [13]: 0.449 | first-order primary biodegradation rate constant k [5]: 2.21 | first-order primary biodegradation rate constant k [6]: 0.83 | first-order primary biodegradation rate constant k [7]: 1.18 | first-order primary biodegradation rate constant k [8]: 1.47 | first-order primary biodegradation rate constant k [14]: 1.5

CC1=CC(=O)NS(=O)(=O)O1 [Acesulfame]
first-order primary biodegradation rate constant k [2]: 0.191 | first-order primary biodegradation rate constant k [11]: 1.27 | first-order primary biodegradation rate constant k [12]: 0.157 | first-order primary biodegradation rate constant k [5]: 0.293 | first-order primary biodegradation rate constant k [7]: 0.0997

C/C(=N\C#N)N(C)Cc1ccc(Cl)nc1 [Acetamiprid]
first-order primary biodegradation rate constant k [1]: 0.0195 | first-order primary biodegradation rate constant k [9]: 0.217 | first-order primary biodegradation rate constant k [10]: 0.0162 | first-order primary biodegradation rate constant k [2]: 0.097 | first-order primary biodegradation rate constant k [3]: 0.0201 | first-order primary biodegradation rate constant k [15]: 0.125 | first-order primary biodegradation rate constant k [4]: 0.0691 | first-order primary biodegradation rate constant k [12]: 0.00952 | first-order primary biodegradation rate constant k [5]: 0.0364 | first-order primary biodegradation rate constant k [6]: 0.031 | first-order primary biodegradation rate constant k [7]: 0.139 | first-order primary biodegradation rate constant k [8]: 0.106 | first-order primary biodegradation rate constant k [14]: 0.386

CCc1cccc(CC)c1N(COC)C(=O)CCl [Alachlor]
first-order primary biodegradation rate constant k [1]: 0.0727 | first-order primary biodegradation rate constant k [9]: 0.612 | first-order primary biodegradation rate constant k [10]: 0.105 | first-order primary biodegradation rate constant k [15]: 0.387 | first-order primary biodegradation rate constant k [4]: 0.568 | first-order primary biodegradation rate constant k [11]: 0.115 | first-order primary biodegradation rate constant k [5]: 0.12 | first-order primary biodegradation rate constant k [6]: 0.0903 | first-order primary biodegradation rate constant k [7]: 0.223 | first-order primary biodegradation rate constant k [8]: 0.349

CCN1CCCC1CNC(=O)c1cc(S(=O)(=O)CC)c(N)cc1OC (stereo not drawn) [Amisulpride]
first-order primary biodegradation rate constant k [1]: 0.0111 | first-order primary biodegradation rate constant k [9]: 0.266 | first-order primary biodegradation rate constant k [10]: 0.0301 | first-order primary biodegradation rate constant k [2]: 0.501 | first-order primary biodegradation rate constant k [3]: 0.129 | first-order primary biodegradation rate constant k [15]: 0.106 | first-order primary biodegradation rate constant k [11]: 0.0427 | first-order primary biodegradation rate constant k [5]: 0.00307 | first-order primary biodegradation rate constant k [6]: 0.0234 | first-order primary biodegradation rate constant k [8]: 0.00879 | first-order primary biodegradation rate constant k [14]: 0.0314

CC(C)(C#N)c1cc(Cn2cncn2)cc(C(C)(C)C#N)c1 [Anastrozole]
first-order primary biodegradation rate constant k [9]: 0.0241 | first-order primary biodegradation rate constant k [10]: 0.0157 | first-order primary biodegradation rate constant k [3]: 0.658 | first-order primary biodegradation rate constant k [15]: 0.133 | first-order primary biodegradation rate constant k [4]: 0.113 | first-order primary biodegradation rate constant k [8]: 0.00582

CC(C)NCC(O)COc1ccc(CC(N)=O)cc1 (stereo not drawn) [Atenolol]
first-order primary biodegradation rate constant k [1]: 0.299 | first-order primary biodegradation rate constant k [9]: 0.901 | first-order primary biodegradation rate constant k [10]: 0.3 | first-order primary biodegradation rate constant k [2]: 0.39 | first-order primary biodegradation rate constant k [3]: 0.342 | first-order primary biodegradation rate constant k [15]: 0.147 | first-order primary biodegradation rate constant k [4]: 0.665 | first-order primary biodegradation rate constant k [11]: 2.88 | first-order primary biodegradation rate constant k [13]: 0.0637 | first-order primary biodegradation rate constant k [5]: 0.568 | first-order primary biodegradation rate constant k [6]: 0.114 | first-order primary biodegradation rate constant k [7]: 0.395 | first-order primary biodegradation rate constant k [8]: 0.508 | first-order primary biodegradation rate constant k [14]: 0.447

CCNc1nc(Cl)nc(NC(C)C)n1 [Atrazine]
first-order primary biodegradation rate constant k [1]: 0.0725 | first-order primary biodegradation rate constant k [9]: 0.136 | first-order primary biodegradation rate constant k [10]: 0.025 | first-order primary biodegradation rate constant k [2]: 0.0312 | first-order primary biodegradation rate constant k [11]: 0.103 | first-order primary biodegradation rate constant k [12]: 0.0247 | first-order primary biodegradation rate constant k [5]: 0.451 | first-order primary biodegradation rate constant k [6]: 0.0513 | first-order primary biodegradation rate constant k [8]: 0.0313 | first-order primary biodegradation rate constant k [14]: 0.0218

c1ccc2[nH]nnc2c1 [Benzotriazole]
first-order primary biodegradation rate constant k [1]: 0.0409 | first-order primary biodegradation rate constant k [9]: 0.0507 | first-order primary biodegradation rate constant k [10]: 0.00553 | first-order primary biodegradation rate constant k [2]: 0.316 | first-order primary biodegradation rate constant k [15]: 0.0923 | first-order primary biodegradation rate constant k [4]: 2.87 | first-order primary biodegradation rate constant k [11]: 0.0121 | first-order primary biodegradation rate constant k [12]: 0.00219 | first-order primary biodegradation rate constant k [5]: 0.208 | first-order primary biodegradation rate constant k [7]: 0.00612 | first-order primary biodegradation rate constant k [8]: 0.0122 | first-order primary biodegradation rate constant k [14]: 0.0264

CC(C)(Oc1ccc(CCNC(=O)c2ccc(Cl)cc2)cc1)C(=O)O [Bezafibrate]
first-order primary biodegradation rate constant k [1]: 0.295 | first-order primary biodegradation rate constant k [9]: 0.469 | first-order primary biodegradation rate constant k [10]: 0.123 | first-order primary biodegradation rate constant k [2]: 0.408 | first-order primary biodegradation rate constant k [3]: 0.184 | first-order primary biodegradation rate constant k [15]: 0.438 | first-order primary biodegradation rate constant k [4]: 0.566 | first-order primary biodegradation rate constant k [11]: 1.03 | first-order primary biodegradation rate constant k [12]: 0.169 | first-order primary biodegradation rate constant k [13]: 0.0229 | first-order primary biodegradation rate constant k [5]: 0.263 | first-order primary biodegradation rate constant k [6]: 0.382 | first-order primary biodegradation rate constant k [7]: 0.411 | first-order primary biodegradation rate constant k [14]: 2.17

CC(C)NCC(O)COc1ccc(COCCOC(C)C)cc1 (stereo not drawn) [Bisoprolol]
first-order primary biodegradation rate constant k [1]: 0.341 | first-order primary biodegradation rate constant k [9]: 0.352 | first-order primary biodegradation rate constant k [10]: 0.336 | first-order primary biodegradation rate constant k [3]: 0.37 | first-order primary biodegradation rate constant k [15]: 0.293 | first-order primary biodegradation rate constant k [4]: 1.27 | first-order primary biodegradation rate constant k [11]: 0.569 | first-order primary biodegradation rate constant k [12]: 0.414 | first-order primary biodegradation rate constant k [13]: 0.144 | first-order primary biodegradation rate constant k [5]: 0.28 | first-order primary biodegradation rate constant k [6]: 0.326 | first-order primary biodegradation rate constant k [7]: 0.309 | first-order primary biodegradation rate constant k [8]: 0.473 | first-order primary biodegradation rate constant k [14]: 0.772

N#Cc1cc(Br)c(O)c(Br)c1 [Bromoxynil]
first-order primary biodegradation rate constant k [9]: 0.133 | first-order primary biodegradation rate constant k [4]: 0.0249 | first-order primary biodegradation rate constant k [5]: 0.0939 | first-order primary biodegradation rate constant k [14]: 0.0852
